Assay results published in patent publication US6943170B2, “N-cycloalkylglycines as HIV protease inhibitors” (Bristol-Myers Squibb Company, priority 2002, dated 2005).
≈ marks a conversion by molar mass, not a printed value.

System: HIV-1 (RF)
Experiment: HIV RNA assay: microplate based compound evaluation in HIV-1 infected MT-2 cells
Type: cell-based
Settings: Human immunodeficiency virus 1, MT2, 72 h; HIV-1 (RF) infected MT-2 cells, 3 days culture; value used to standardize the virus inoculum; read-out: IC90 (concentration of compound required to reduce the HIV RNA level by 90%)
Experimental: Plasmid PDAB 72 containing both gag and pol sequences of BH10 (bp 113-1816) cloned into PTZ 19R was prepared according to Erickson-Vitanen et al. AIDS Research and Human Retroviruses 1989, 5, 577. The plasmid was linearized with Bam HI prior to the generation of in vitro RNA transcripts using the Riboprobe Gemini system II kit (Promega) with T7 RNA polymerase. Synthesized RNA was purified by treatment with RNase free DNAse (Promega), phenol-chloroform extraction, and ethanol precipitation. RNA transcripts were dissolved in water, and stored at −70EC. The concentration of RNA was determined from the A260.
Biotinylated capture probes were purified by HPLC after synthesis on an Applied Biosystems (Foster city, Calif.) DNA synthesizer by addition of biotin to the 5N terminal end of the oligonucleotide, using the biotin-phosphoramidite reagent of Cocuzza, Tet. Lett. 1989, 30, 6287. […]
MT-2 and MT-4 cells were maintained in RPMI 1640 supplemented with 5% fetal calf serum (FCS) for MT-2 cells or 10% FCS for MT-4 cells, 2 mM L-glutamine and 50 μg/mL gentamycin, all from Gibco. […] Infectious titers of HIV-1 (RF) stocks were 1-3×10^7 PFU (plaque forming units)/mL as measured by plaque assay on MT-2 cells (see below). […]

IC90: 0.2 µg/mL (≈ 0.947 µM)
Structure (SMILES): Nc1ccn([C@H]2CC[C@@H](CO)O2)c(=O)n1 [ddC, dideoxycytidine]
